This note sets out measurements from patent US10023543B2 (CELGENE QUANTICEL RESEARCH, INC., priority 2014, dated 2018).

One assay has as its system THP-1 (AML) cells. Description: LSD1 CD11b cellular assay (flow cytometry). It counts as cell-based. The conditions noted are these: Homo sapiens, THP-1, 96 h, read-out: THP-1 IC50 (μM). On the technique in general: A flow cytometer gives signals particle by particle.
`COc1ccc(-c2c(-c3ccc(C#N)cc3)nc(N3CCC(N)CC3)n(C)c2=O)cc1` [Example 2, 4-[2-(4-amino-piperidin-1-yl)-5-(4-methoxy-phenyl)-1-methyl-6-oxo-1,6-dihydro-pyrimidin-4-yl]-benzonitrile]: the IC50 (usually the concentration that gives 50% inhibition) was less than 0.1 µM.

Staying with this assay, now noted: Homo sapiens, THP-1, 96 h; CD11b expressing cells, 4 days; read-out: THP-1 IC50.
For `CNC1CCN(c2nc(-c3ccc(C#N)c(F)c3)c(-c3ccc(OC)c(F)c3)c(=O)n2C)CC1` [Example 12, 2-fluoro-4-[5-(3-fluoro-4-methoxy-phenyl)-1-methyl-2-(4-methylamino-piperidin-1-yl)-6-oxo-1,6-dihydro-pyrimidin-4-yl]-benzonitrile], the IC50 is less than 0.1 µM. The same measure, in the same setting: under `COc1ccc(-c2c(-c3ccc(C#N)c(F)c3)nc(N3CCCNCC3)n(C)c2=O)cn1` [Example 61, 4-[2-[1,4]diazepan-1-yl-5-(6-methoxy-pyridin-3-yl)-1-methyl-6-oxo-1,6-dihydro-pyrimidin-4-yl]-2-fluoro-benzonitrile] stands less than 0.1 µM; under `COc1ccc(-c2c(-c3ccc(C#N)c(F)c3)nc(NC3CCNCC3)n(C)c2=O)cc1` [Example 53, 2-fluoro-4-[5-(4-methoxy-phenyl)-1-methyl-6-oxo-2-(piperidin-4-ylamino)-1,6-dihydro-pyrimidin-4-yl]-benzonitrile], 0.1 to 1 µM; under `Cn1c(N2CCC(N)CC2)nc(-c2ccc(C#N)c(F)c2)c(-c2ccc(N3CCOCC3)nc2)c1=O` [Example 68, 4-[2-(4-amino-piperidin-1-yl)-1-methyl-5-(6-morpholin-4-yl-pyridin-3-yl)-6-oxo-1,6-dihydro-pyrimidin-4-yl]-2-fluoro-benzonitrile], less than 0.1 µM. Still for that read-out and setting: the value for `CN(C)c1ccc(-c2c(-c3ccc(C#N)c(F)c3)nc(N3CCCNCC3)n(C)c2=O)cn1` [Example 63, 4-[2-[1,4]diazepan-1-yl-5-(6-dimethylamino-pyridin-3-yl)-1-methyl-6-oxo-1,6-dihydro-pyrimidin-4-yl]-2-fluoro-benzonitrile] was less than 0.1 µM; that for `COc1ccc(-c2c(-c3ccc(C#N)cc3)nc(NC[C@H]3CCNC3)n(C)c2=O)cc1F` [Example 44, 4-{5-(3-fluoro-4-methoxy-phenyl)-1-methyl-6-oxo-2-[(3S)-(pyrrolidin-3-ylmethyl)-amino]-1,6-dihydro-pyrimidin-4-yl}-benzonitrile] was 0.1 to 1 µM. As for `COc1ccc(-c2c(-c3ccc(C#N)c(F)c3)nc(N3CCNCC3)n(C)c2=O)cc1F` [Example 47, 2-fluoro-4-[5-(3-fluoro-4-methoxy-phenyl)-1-methyl-6-oxo-2-piperazin-1-yl-1,6-dihydro-pyrimidin-4-yl]-benzonitrile], the IC50 was in the range of 0.1 to 1 µM. As for `COc1ccc(-c2c(-c3ccc(C#N)c(F)c3)nc(N3CC[C@@H](N)[C@@H](F)C3)n(C)c2=O)cc1` [Example 78, 4-[2-((4R,3S)-4-amino-3-fluoro-piperidin-1-yl)-5-(4-methoxy-phenyl)-1-methyl-6-oxo-1,6-dihydro-pyrimidin-4-yl]-2-fluoro-benzonitrile], the IC50 is less than 0.1 µM. Regarding `COc1ccc(-c2c(-c3ccc(C#N)c(F)c3)nc(N3CC[C@H](N)C3)n(C)c2=O)cc1F` [Example 29, 4-[2-((3S)-3-amino-pyrrolidin-1-yl)-5-(3-fluoro-4-methoxy-phenyl)-1-methyl-6-oxo-1,6-dihydro-pyrimidin-4-yl]-2-fluoro-benzonitrile], the IC50 is 0.1 to 1 µM.

In the case of `COc1ccc(-c2c(-c3ccc(C#N)cc3)nc(N3CCCNCC3)n(C)c2=O)cn1` [Example 62], the IC50 was 0.1 to 1 µM. On to `CCc1ccc(-c2c(-c3ccc(C#N)cc3)nc(N3CCC(N)CC3)n(C)c2=O)cn1` [Example 10, 4-[2-(4-amino-piperidin-1-yl)-5-(6-ethyl-pyridin-3-yl)-1-methyl-6-oxo-1,6-dihydro-pyrimidin-4-yl]-benzonitrile], for which the IC50 was 0.1 to 1 µM. `Cn1c(N2CCC(N)CC2)nc(-c2ccc(C#N)c(F)c2)cc1=O` [Example 108, 4-[2-(4-aminopiperidin-1-yl)-1-methyl-6-oxopyrimidin-4-yl]-2-fluorobenzonitrile]: the IC50 was 0.1 to 1 µM. For `Cn1c(N2CCC(N)CC2)nc(-c2ccc(C#N)c(F)c2)c(-c2ccc3c(ccn3C)c2)c1=O` [Example 74, 4-[2-(4-amino-piperidin-1-yl)-1-methyl-5-(1-methyl-1H-indol-5-yl)-6-oxo-1,6-dihydro-pyrimidin-4-yl]-2-fluoro-benzonitrile], the IC50 is less than 0.1 µM. In the case of `CN(C)c1ncc(-c2c(-c3ccc(C#N)c(F)c3)nc(N3CCC(N(C)C)CC3)n(C)c2=O)cn1` [Example 81, 4-[2′-dimethylamino-2-(4-dimethylamino-piperidin-1-yl)-1-methyl-6-oxo-1,6-dihydro-[5,5′]bipyrimidinyl-4-yl]-2-fluoro-benzonitrile], the IC50 is 0.1 to 1 µM.

For the compound `Cn1c(N2CCC(N)CC2)nc(-c2ccc(C#N)c(F)c2)c(-c2ccc3ccn(C)c3c2)c1=O` [Example 76, 4-[2-(4-amino-piperidin-1-yl)-1-methyl-5-(1-methyl-1H-indol-6-yl)-6-oxo-1,6-dihydro-pyrimidin-4-yl]-2-fluoro-benzonitrile], the IC50 is less than 0.1 µM. Regarding `Cn1c(N2CCC(N)CC2)nc(-c2ccc(C#N)c(F)c2)c(Cl)c1=O` [Example 20, 4-[2-(4-aminopiperidin-1-yl)-5-chloro-1-methyl-6-oxopyrimidin-4-yl]-2-fluorobenzonitrile], the IC50 fell in the range of 0.1 to 1 µM. For `COc1ncc(-c2c(-c3ccc(C#N)c(F)c3)nc(N3CCC(N)CC3)n(C)c2=O)cc1F` [Example 26, 4-[2-(4-aminopiperidyl)-5-(5-fluoro-6-methoxy(3-5,6-dihydropyridyl))-1-methyl-6-oxohydropyrimidin-4-yl]-2-fluorobenzenecarbonitrile], the IC50 was less than 0.1 µM. As to `CN(C)c1ccc(-c2c(-c3ccc(C#N)c(F)c3)nc(N3CCC(N)CC3)n(C)c2=O)cc1` [Example 59, 4-[2-(4-amino-piperidin-1-yl)-5-(4-dimethylamino-phenyl)-1-methyl-6-oxo-1,6-dihydro-pyrimidin-4-yl]-2-fluoro-benzonitrile], the IC50 was less than 0.1 µM. For the compound `COc1ccc(-c2c(-c3ccc(C#N)cc3)nc(NC[C@@H]3CCNC3)n(C)c2=O)cc1F` [Example 45, 4-{5-(3-fluoro-4-methoxy-phenyl)-1-methyl-6-oxo-2-[(3R)-(pyrrolidin-3-ylmethyl)-amino]-1,6-dihydro-pyrimidin-4-yl}-benzonitrile], the IC50 is 0.1 to 1 µM. In the case of `CNC1CCN(c2nc(-c3ccc(C#N)c(F)c3)c(-c3ccc(OC)cc3)c(=O)n2C)CC1` [Example 11, 2-fluoro-4-[5-(4-methoxy-phenyl)-1-methyl-2-(4-methylamino-piperidin-1-yl)-6-oxo-1,6-dihydro-pyrimidin-4-yl]-benzonitrile], the IC50 is less than 0.1 µM. For `Cn1c(N2CCC(N)CC2)nc(-c2ccc(C#N)c(F)c2)c(-c2ccc(CCO)cc2)c1=O` [Example 99, 4-[2-(4-aminopiperidin-1-yl)-5-[4-(2-hydroxyethyl)phenyl]-1-methyl-6-oxopyrimidin-4-yl]-2-fluorobenzonitrile], the IC50 is less than 0.1 µM. As to `CCOc1ccc(-c2c(-c3ccc(C#N)c(F)c3)nc(N3CCC(N)CC3)n(C)c2=O)cc1` [Example 95, 4-[2-(4-aminopiperidin-1-yl)-5-(4-ethoxyphenyl)-1-methyl-6-oxopyrimidin-4-yl]-2-fluorobenzonitrile], the IC50 is less than 0.1 µM. Turning to `Cn1c(N2CCC(N)CC2)nc(-c2ccc(C#N)c(F)c2)c(-c2ccc(S(C)(=O)=O)cc2)c1=O` [Example 105, 4-[2-(4-aminopiperidin-1-yl)-1-methyl-5-(4-methylsulfonylphenyl)-6-oxopyrimidin-4-yl]-2-fluorobenzonitrile], the IC50 was less than 0.1 µM. Consider `CNC1CCN(c2nc(-c3ccc(C#N)c(F)c3)c(-c3ccc(N(C)C)nc3)c(=O)n2C)CC1` [Example 83, 4-[5-(6-dimethylamino-pyridin-3-yl)-1-methyl-2-(4-methylamino-piperidin-1-yl)-6-oxo-1,6-dihydro-pyrimidin-4-yl]-2-fluoro-benzonitrile], for which the IC50 was less than 0.1 µM. As to `CNCC1CN(c2nc(-c3ccc(C#N)c(F)c3)c(-c3ccc(OC)cc3)c(=O)n2C)C1` [Example 70, 2-fluoro-4-[5-(4-methoxy-phenyl)-1-methyl-2-(3-methylaminomethyl-azetidin-1-yl)-6-oxo-1,6-dihydro-pyrimidin-4-yl]-benzonitrile], the half-inhibitory concentration (IC50) is less than 0.1 µM. Same read-out and setting: under `Cn1c(N2CCC(N)CC2)nc(-c2ccc(C#N)c(F)c2)c(-c2ccc(F)cc2)c1=O` [Example 101, 4-[2-(4-aminopiperidin-1-yl)-5-(4-fluorophenyl)-1-methyl-6-oxopyrimidin-4-yl]-2-fluorobenzonitrile] stands less than 0.1 µM; under `CN(C)c1ccc(-c2c(-c3ccc(C#N)cc3)nc(N3CCCNCC3)n(C)c2=O)cn1` [Example 67, 4-[2-[1,4]diazepan-1-yl-5-(6-dimethylamino-pyridin-3-yl)-1-methyl-6-oxo-1,6-dihydro-pyrimidin-4-yl]-benzonitrile], less than 0.1 µM; under `Cc1ccc(-c2c(-c3ccc(C#N)c(F)c3)nc(N3CCC(N(C)C)CC3)n(C)c2=O)cn1` [Example 82, 4-[2-(4-dimethylamino-piperidin-1-yl)-1-methyl-5-(6-methyl-pyridin-3-yl)-6-oxo-1,6-dihydro-pyrimidin-4-yl]-2-fluoro-benzonitrile], 0.1 to 1 µM.

`C#Cc1c(-c2ccc(C#N)c(F)c2)nc(N2CCC(N)CC2)n(C)c1=O` [Example 110]: the half-inhibitory concentration (IC50) lay in the range of 0.1 to 1 µM. With `COc1ccc(-c2c(-c3ccc(C#N)c(F)c3)nc(N3CCC4(CCNC4)CC3)n(C)c2=O)cc1F` [Example 22, 4-[2-(2,8-diaza-spiro[4.5]dec-8-yl)-5-(3-fluoro-4-methoxy-phenyl)-1-methyl-6-oxo-1,6-dihydro-pyrimidin-4-yl]-2-fluoro-benzonitrile], the IC50 is less than 0.1 µM.

For `COc1ccc(-c2c(-c3ccc(C#N)c(F)c3)nc(N3CCC(N)CC3)n(CC(=O)O)c2=O)cc1` [Example 15, [2-(4-amino-piperidin-1-yl)-4-(4-cyano-3-fluoro-phenyl)-5-(4-methoxy-phenyl)-6-oxo-6H-pyrimidin-1-yl]-acetic acid], the IC50 fell in the range of 1 to 10 µM.
